# Laboratory results taken from publication PMC8160969, “Organoruthenium Complexes with Benzo-Fused Pyrithiones Overcome Platinum Resistance in Ovarian Cancer Cells” (Cancers, 2021).
# Target: T1, thioredoxin reductase (TrxR) (Rattus norvegicus, UniProt O89049)
# T1 construct: gene Txnrd1; commercially available rat liver TrxR
# T1 sequence (O89049 1-499): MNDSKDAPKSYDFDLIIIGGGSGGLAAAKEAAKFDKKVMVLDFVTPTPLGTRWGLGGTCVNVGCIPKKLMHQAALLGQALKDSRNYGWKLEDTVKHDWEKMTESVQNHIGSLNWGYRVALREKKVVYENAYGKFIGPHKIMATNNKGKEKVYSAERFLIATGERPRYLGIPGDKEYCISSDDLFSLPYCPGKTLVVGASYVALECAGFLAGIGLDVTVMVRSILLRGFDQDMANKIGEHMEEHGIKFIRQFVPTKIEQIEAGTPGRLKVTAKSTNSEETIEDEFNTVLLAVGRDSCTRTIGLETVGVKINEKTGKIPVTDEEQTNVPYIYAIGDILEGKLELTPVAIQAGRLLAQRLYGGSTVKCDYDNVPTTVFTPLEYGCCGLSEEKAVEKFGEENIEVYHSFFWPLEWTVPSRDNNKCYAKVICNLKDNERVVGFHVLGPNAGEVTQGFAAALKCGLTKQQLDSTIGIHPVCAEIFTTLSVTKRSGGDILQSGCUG
# Assay: DTNB reduction assay with NADPH and rat liver TrxR, […] min exposure, absorbance at […] nm
# Assay type: biochemical
smiles,measurement,value
"Cc1ccc(C(C)C)cc1.[Cl][Ru-]1[O]N2C=Cc3ccccc3C2=[S+]1 [1a, organoruthenium(II) chlorido complex 1a]",IC50,4.1 ± 0.16 µM
